# Assay results reported in patent US20060241082A1, “Modulating vesicular monoamine transporter trafficking and function: a novel approach for the treatment of parkinson's disease” (priority 2002, published 2006).
# Structures can show the parent of a compound that is named as a salt.
# Tests used:
# DAT [1] = target: T1, DAT (Rattus norvegicus, UniProt P23977); assay: In vitro preincubation of striatal synaptosomes with MDMA: [3H]DA uptake and WIN35428 binding; assay type: biochemical; conditions: 10 μM inhibitor 5 min, then 10 μM MDMA 30 min at 37° C.
# T1 construct: from tissue; host or cells: striatum of male Sprague-Dawley rats (synaptosomes, P2)
# T1 sequence (P23977 whole entry): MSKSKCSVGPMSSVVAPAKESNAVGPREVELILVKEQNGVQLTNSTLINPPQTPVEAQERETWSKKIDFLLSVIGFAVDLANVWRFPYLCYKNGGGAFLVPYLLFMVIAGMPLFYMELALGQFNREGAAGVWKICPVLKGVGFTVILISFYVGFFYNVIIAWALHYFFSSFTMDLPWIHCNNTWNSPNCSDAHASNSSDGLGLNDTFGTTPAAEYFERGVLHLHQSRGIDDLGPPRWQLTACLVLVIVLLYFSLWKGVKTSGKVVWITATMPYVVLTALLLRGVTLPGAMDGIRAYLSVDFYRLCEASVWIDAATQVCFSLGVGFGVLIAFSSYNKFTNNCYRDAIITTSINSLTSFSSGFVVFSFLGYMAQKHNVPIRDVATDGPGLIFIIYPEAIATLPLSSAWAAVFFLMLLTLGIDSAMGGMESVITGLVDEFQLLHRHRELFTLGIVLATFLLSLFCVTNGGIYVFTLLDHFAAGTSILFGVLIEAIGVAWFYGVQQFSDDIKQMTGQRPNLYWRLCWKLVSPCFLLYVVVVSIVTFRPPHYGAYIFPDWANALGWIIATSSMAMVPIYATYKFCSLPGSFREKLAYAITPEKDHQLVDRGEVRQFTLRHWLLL
# Procedure: (§1) Uptake of [^3H]DA was determined in striatal synaptosomes prepared according to the method described by Kokoshka et al. (1998). Briefly, fresh striatal tissue was homogenized in cold 0.32 M sucrose and centrifuged (800×g for 12 min; 4° C.). The supernatant (S1) was then centrifuged (22,000×g for 15 min; 4° C.), and the resulting pellet (P2) was resuspended in ice-cold modified Kreb's buffer (in mM: 126 NaCl, 4.8 KCl, 1.3 CaCl2, 16 sodium phosphate, 1.4 MgSO4, 11 dextrose, 1-ascorbic acid, pH 7.4). Assays were conducted in Kreb's buffer. Each assay tube contained synaptosomal tissue (i.e., resuspended P2 obtained from 1.5 mg of original wet weight striatal tissue) and 1 μM pargyline. Nonspecific values were determined in the presence of 100 μM cocaine. After preincubation of assay tubes for 10 min at 37° C., assays were initiated by the addition of [^3H]DA (0.5 nM final concentration). Samples were incubated at 37° C. for 3 min. Samples were then filtered through Whatman GF/B filters (Brandel, Gaithersburg, Md.) soaked previously in 0.05% polyethylenimine. Filters were washed rapidly 3 times with 3 ml of ice-cold 0.32 M sucrose using a Brandel filtering manifold. […] Remaining resuspended P2 samples were assayed for protein concentrations according to the method of Lowry et al. (1951). In MDMA preincubation experiments, samples were preincubated with 10 μM MDMA for 30 min at 37° C. After 30 min, resuspended P2 fractions were “washed” by centrifugation (22,000×g for 15 min; 4° C.). The resulting pellet (P3) was then resuspeded in ice-cold Kreb's buffer, and once again centrifuged (22,000×g for 15 min; 4° C.) to obtain a P4 pellet that was subsequently resuspended and assayed. [^3H]WIN35428 binding (0.5 nM final concentration) was conducted in phosphate-buffered 0.32 M sucrose, pH 7.4, with synaptosomes obtained from 2 mg (original wet weight) of striatal tissue per reaction tube, and samples were incubated on ice for 2 hr. Samples were then filtered through Whatman GF/B filters (Brandel, Gaithersburg, Md.) soaked previously in 0.05% polyethylenimine. Filters were washed rapidly 3 times with 3 ml of ice-cold 0.32 M sucrose using a Brandel filtering manifold. […] Remaining resuspended P2 samples were assayed for protein concentrations according to the method of Lowry et al. (1951).
# VMAT-2 [2] = assay: VMAT-2 immunoreactivity in striatal subcellular fractions (P2, P3, S3) of treated rats (Western blot); assay type: in vivo, rat; conditions: 1 h
# Procedure: Striatal synaptosomes were prepared from rats decapitated 1 h after treatment as previously described (Fleckenstein et al., 1997). Briefly, striatal tissue was homogenized in cold 0.32 M sucrose and centrifuged (800×g for 12 min; 4° C.). The supernatant (S1) was then centrifuged (22,000×g for 15 min; 4° C.) and the resulting pellet (P2, synaptosomal fraction) was resuspended at 50 mg original wet weight/ml in cold water and a portion saved for western blot analysis. The remainder of the synaptosomal sample was centrifuged for 20 min at 22,000×g (4° C.) to pellet lysed synaptosomal membranes (P3, synaptosomal membrane fraction), which were then resuspended at 50 mg original wet weight/ml and saved for western blot analysis. Prior to resuspension of the plasmalemmal membrane fraction the supernatant (S3, vesicle-enriched fraction) was removed and saved for western blot analysis.
# Binding of VMAT-2 antibody was performed using 60 μl aliquots of synaptosomal (P2), synaptosomal membrane (P3), or vesicle-enriched (S3) preparations. Each aliquot was added to 20 μl of loading buffer (final concentration: 2.25% sodium dodecyl sulfate, 18% glycerol, 180 mM Tris base (pH 6.8), 10% β-mercapto-ethanol and bromophenol blue), boiled for 10 min, and loaded on a 10% sodium dodecyl sulfate-polyacrylamide gel. Following electrophoresis, samples were transferred to polyvinlylidene difluoride membrane, blocked with 5% nonfat dry milk in Tris-buffered saline with tween (250 mM NaCl, 50 mM Tris pH 7.4 and 0.05% Tween 20), and probed with the VMAT-2 antibody (provided by J.W.H.). Bound antibody was visualized with HRP-conjugated goat anti-rabbit antibody, and antigen-antibody complexes were visualized by chemiluminescence. Multiple exposures of blots were obtained to ensure development within the linear range of the film. Bands on blots were quantified by densitometry using Kodak 1D image-analysis software.
# Fresh striatal tissue was homogenized in ice-cold 0.32 M sucrose and centrifuged (800×g for 12 min; 4° C.). […] Resuspended tissue was aliquoted into two test tubes. One aliquot was centrifuged (22,000×g for 10 min; 4° C.) to separate plasmalemmal membranes from the synaptic vesicle-enriched fraction. The resulting supernatant (S3) contained the vesicular subcellular fraction of interest, and the pellets (P3; plasmalemmal membrane fraction) were resuspended in cold distilled deionized water.
# VMAT-2 antibody was purchased from Chemicon (Temecula, Calif.; AB1767). Binding of VMAT-2 antibody was performed using 60 μl of whole synaptosomal, plasmalemmal membrane or vesicle subcellular fractions. Samples were added to 20 μl of loading buffer (final concentration: 2.25% SDS, 18% glycerol, 180 mM Tris Base (pH 6.8), 10% […] and bromophenol blue). Approximately 60 μg protein of the whole synaptosomal fraction, 40 μg protein of the plasmalemmal membrane fraction or 20 μg protein of the vesicle subcellular fraction was loaded per well in a 10% SDS-polyacrylamide gel. Following electrophoresis, samples were transferred to polyvinylidene difluoride hybridization transfer membrane (New England Nuclear (NEN), Boston, Mass.). All subsequent incubation steps were performed at room temperature while shaking. Each membrane was first blocked for 2 h in 100 ml of tris buffer saline with tween (TBST; 250 mM NaCl, 50 mM tris pH 7.4 and 0.05% tween 20) containing 5% nonfat dry milk. Each membrane was then incubated with anti-VMAT-2 antibody (1:4000 dilution) in 13 ml of TBST with 5% milk for 1 h and then washed 5 times (2×1 min wash; 3×5 min wash) in 70 ml TBST with 5% milk.
# VMAT-2 [3] = target: T2, VMAT-2 (Rattus norvegicus, UniProt Q01827); assay type: in vivo; design: purified striatal vesicles prepared from treated rats; from tissue; host or cells: striatum of male Sprague-Dawley rats (synaptic vesicles; P2, P3, S3 fractions)
# T2 sequence (Q01827 whole entry): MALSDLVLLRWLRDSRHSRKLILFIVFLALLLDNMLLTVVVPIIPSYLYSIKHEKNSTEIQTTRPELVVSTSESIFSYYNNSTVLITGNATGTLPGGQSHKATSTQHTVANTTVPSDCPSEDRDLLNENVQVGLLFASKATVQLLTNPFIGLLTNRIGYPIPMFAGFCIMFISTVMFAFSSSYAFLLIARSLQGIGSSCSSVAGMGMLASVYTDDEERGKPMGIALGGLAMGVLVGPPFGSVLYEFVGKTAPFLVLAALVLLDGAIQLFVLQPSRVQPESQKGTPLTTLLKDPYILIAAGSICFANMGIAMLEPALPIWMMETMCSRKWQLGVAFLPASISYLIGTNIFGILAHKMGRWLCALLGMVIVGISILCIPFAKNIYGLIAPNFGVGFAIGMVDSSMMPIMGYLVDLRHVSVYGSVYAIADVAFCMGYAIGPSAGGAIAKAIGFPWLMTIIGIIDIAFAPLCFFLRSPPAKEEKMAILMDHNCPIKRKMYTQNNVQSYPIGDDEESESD
# Procedure: Osmolarity was restored by addition of N-(2-hydroxyethyl)-piperazine-N′-2-ethanesulfonic acid (HEPES) and potassium tartrate 25 mM and 100 mM (final concentrations; pH 7.5 at 4° C.), respectively.
# VMAT-2 [4] = target: T2, VMAT-2; assay: [3H]DHTBZ binding in purified striatal vesicles prepared from treated rats; conditions: rats
# Procedure: Synaptic vesicles were obtained from synaptosomes prepared from rat striatum as described above. Synaptosomes were resuspended and homogenized in cold distilled deionized water. Osmolarity was restored by addition of HEPES and potassium tartrate 245 and 100 mM (final concentrations; pH 7.5), respectively. Samples were centrifuged for 20 min at 20,000×g (4° C.) to remove lysed synaptosomal membranes. MgSO4 (1 mM, final concentration) was added to the supernatant, which was then centrifuged for 45 min at 100,000×g (4° C.). The resulting vesicular pellet was resuspended in wash buffer at a concentration of 50 mg/ml (original tissue weight). […] Binding of [^3H]DHTBZ was performed as described by Teng et al. (1998). Briefly, 200 μl of the synaptic vesicle preparation (˜6 μg of protein) was incubated in wash buffer in the presence of [^3H]DHTBZ (2 nM final concentration) for 10 min at 25° C. The reaction was terminated by addition of 1 ml of cold wash buffer and rapid filtration through Whatman GF/F filters soaked in 0.5% polyethylenimine. Filters were washed three times with ice-cold wash buffer. Nonspecific binding was determined by coincubation with 20 μM tetrabenazine. All protein concentrations were determined by a BioRad protein assay (Bio-Rad, Richmond, Calif.).
# Binding of [^3H]DHTBZ was performed as described by Teng et al. (1998). Briefly, 200 μl (˜6 μg protein) of the synaptic vesicle preparation was incubated in wash buffer in the presence of [^3H]DHTBZ (2 nM final concentration except in kinetic analyses wherein 0.25-500 nM DHTBZ was employed) for 10 m in at 25° C. The reaction was terminated by addition of 1 ml cold wash buffer and rapid filtration through Whatman GF/F filters soaked in 0.5% polyethylenimine. Filters were washed three times with ice-cold wash buffer. Radioactivity trapped in filters was counted using a liquid scintillation counter. Nonspecific binding was determined by coincubation with 20 μM TBZ. All protein concentrations were determined by a Bio-Rad protein assay (Bio-Rad Inc.).
# Binding of[^3H]DHTBZ was performed as described by Teng et al. (1998). Briefly, 200 μl (˜5 μg protein) of the synaptic vesicle preparation was incubated in wash buffer in the presence of [^3H]DHTBZ (2 nM final concentration except in kinetic analyses wherein 0.25-500 nM DHTBZ was employed) for 10 m in at 25° C. The reaction was terminated by addition of 1 ml cold wash buffer and rapid filtration through Whatman GF/F filters soaked in 0.5% polyethylenimine. Filters were washed three times with ice-cold wash buffer. Radioactivity trapped in filters was counted using a liquid scintillation counter. Nonspecific binding was determined by coincubation with 20 μM TBZ. All protein concentrations were determined by a Bio-Rad protein assay (Bio-Rad Inc.).
# VMAT-2 [5] = target: VMAT-2 (Mus musculus, UniProt Q8BRU6); assay: Vesicular [3H]dopamine uptake in striatal vesicles prepared from treated mice; assay type: in vivo; conditions: antagonist 2 mg/kg i.p. prior to each methamphetamine injection (4 x 10 mg/kg s.c.), 1 h
# Sequence of VMAT-2 (Mus musculus, UniProt Q8BRU6) (Q8BRU6 whole entry): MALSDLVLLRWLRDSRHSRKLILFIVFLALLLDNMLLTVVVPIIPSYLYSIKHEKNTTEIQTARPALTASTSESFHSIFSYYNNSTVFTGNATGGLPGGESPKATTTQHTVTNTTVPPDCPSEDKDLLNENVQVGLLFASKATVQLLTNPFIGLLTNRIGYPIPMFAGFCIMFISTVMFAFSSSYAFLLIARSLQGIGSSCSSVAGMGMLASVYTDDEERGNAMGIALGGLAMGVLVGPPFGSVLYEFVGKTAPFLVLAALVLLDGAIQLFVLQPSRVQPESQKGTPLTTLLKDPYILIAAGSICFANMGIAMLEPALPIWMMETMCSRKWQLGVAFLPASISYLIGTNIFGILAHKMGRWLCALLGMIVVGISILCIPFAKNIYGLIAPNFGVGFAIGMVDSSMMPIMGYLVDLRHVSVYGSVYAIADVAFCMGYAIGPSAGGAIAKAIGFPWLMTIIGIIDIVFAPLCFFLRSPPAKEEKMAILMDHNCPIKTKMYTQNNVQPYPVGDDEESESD
# Procedure: (A. E. Fleckenstein, et al., J. Pharmacol Exp Ther. (1997) 282:834-838). Briefly, fresh tissue was homogenized in ice-cold 0.32 M sucrose. The homogenate was centrifuged (800×g for 12 min; 4° C.), and the supernatant (S1) was carefully removed and centrifuged (22,000×g for 15 min; 4° C.) to obtain the synaptosomal-containing pellet (P2). The resulting P2 were resuspended and homogenized in ice-cold distilled deionized water. Osmolarity was restore by addition 25 mM HEPES and 100 mM potassium tartrate (final concentration; pH 7.5 at 4° C. respectively). […] The resultant S3 removed and MgSO4 added (final concentration of [1 mM] pH 7.5 at 4° C.) and centrifuged at 100,000×g for 45 min. The final P4 were resuspended at 50 mg/ml (original tissue wet weight).
# [6] = Vesicular DA content in purified striatal vesicles of treated rats; assay type: in vivo, rat; conditions: rats, reserpine 10 mg/kg i.p. 6 and 1 h before decapitation
# Procedure: Purified striatal vesicles were prepared as described above. The resulting vesicular pellet was sonicated for approximately 5 sec in cold tissue buffer (0.05 M sodium phosphate/0.03 M citric acid buffer with 15% methanol (v/v); pH 2.5) at a concentration of 100 mg/ml (original wet weight of tissue), and centrifuged for 15 min at 22,000×g. Tissue pellets were retained and protein was determined according to the method of Lowry et al. (1951). 40 μl of supernatant was injected onto a high performance liquid chromatograph system coupled to an electrochemical detector (+0.73 V) for separation and quantitation of DA levels using the method of Chapin et al. (1986).
# [7] = Striatal tissue DA content of treated rats (HPLC); assay type: in vivo, rat
# Procedure: On the day of the assay, frozen tissue samples were thawed, sonicated for 3-5 s in tissue buffer (0.05 M sodium phosphate/0.03 M citric acid buffer with 15% methanol (v/v); pH 2.78), and centrifuged for 15 min at 22,000×g. Tissue pellets were retained and protein determined according to the method of Lowry et al. (1951). The supernatant was centrifuged a second time for 15 min at 22,000×g. 20 μl of supernatant were injected onto a high performance liquid chromatograph system coupled to an electrochemical detector (+0.73 V) for separation and quantitation of dopamine levels using the method of Chapin et al. (1986).
# DAT [8] = target: T1, DAT; assay: [3H]WIN35428 binding in striatal synaptosomes prepared from treated rats; assay type: in vivo; conditions: αMT 150 mg/kg i.p., MDMA 4 x 10 mg/kg s.c.
# Procedure: as §1
# [9] = target: T3, plasmalemmal DA transporter (DAT) (Rattus norvegicus, UniProt P23977); assay: Plasmalemmal [3H]DA uptake in striatal synaptosomes prepared from treated rats; assay type: in vivo; conditions: αMT 150 mg/kg i.p. 5 and 1 h prior to and 3 h after first MDMA injection, MDMA 4 x 10 mg/kg s.c.
# T3 construct: from tissue; host or cells: striatum of male Sprague-Dawley rats (synaptosomes, P2)
# T3 sequence (P23977 whole entry): as the sequence (P23977 whole entry) above
# Procedure: Uptake of [^3H]DA was determined in striatal synaptosomes prepared according to the method described by Kokoshka et al. (1998). Briefly, fresh striatal tissue was homogenized in cold 0.32 M sucrose and centrifuged (800×g for 12 min; 4° C.). The supernatant (S1) was then centrifuged (22,000×g for 15 min; 4° C.), and the resulting pellet (P2) was resuspended in ice-cold modified Kreb's buffer (in mM: 126 NaCl, 4.8 KCl, 1.3 CaCl2, 16 sodium phosphate, 1.4 MgSO4, 11 dextrose, 1-ascorbic acid, pH 7.4). Assays were conducted in Kreb's buffer. Each assay tube contained synaptosomal tissue (i.e., resuspended P2 obtained from 1.5 mg of original wet weight striatal tissue) and 1 μM pargyline. Nonspecific values were determined in the presence of 100 μM cocaine. After preincubation of assay tubes for 10 min at 37° C., assays were initiated by the addition of [^3H]DA (0.5 nM final concentration). Samples were incubated at 37° C. for 3 min. Samples were then filtered through Whatman GF/B filters (Brandel, Gaithersburg, Md.) soaked previously in 0.05% polyethylenimine. Filters were washed rapidly 3 times with 3 ml of ice-cold 0.32 M sucrose using a Brandel filtering manifold. […] Remaining resuspended P2 samples were assayed for protein concentrations according to the method of Lowry et al. (1951). In MDMA preincubation experiments, samples were preincubated with 10 μM MDMA for 30 min at 37° C. After 30 min, resuspended P2 fractions were “washed” by centrifugation (22,000×g for 15 min; 4° C.). The resulting pellet (P3) was then resuspeded in ice-cold Kreb's buffer, and once again centrifuged (22,000×g for 15 min; 4° C.) to obtain a P4 pellet that was subsequently resuspended and assayed. [^3H]WIN35428 binding (0.5 nM final concentration) was conducted in phosphate-buffered 0.32 M sucrose, pH 7.4, with synaptosomes obtained from 2 mg (original wet weight) of striatal tissue per reaction tube, and samples were incubated on ice for 2 hr. Samples were then filtered through Whatman GF/B filters (Brandel, Gaithersburg, Md.) soaked previously in 0.05% polyethylenimine. […]
smiles,measurement,setting,value
CCCCCCCCCCCCC(=O)N1CCCCC1CNC(=O)[C@@H](N)CCCCN.Cl.Cl (some centres unmarked) [NPC15437],effect of PKC inhibitor pretreatment on the MDMA-induced deficit in vitro,DAT [1],attenuated
"CC(=O)O.Cn1cc(C2=C(c3cn(CCCN)c4ccccc34)C(=O)NC2=O)c2ccccc21 [Ro31-7549, 2-[1-3(Aminopropyl)indol-3-yl]-3(1-methylindol-3-yl)maleimide, acetate]",effect of PKC inhibitor pretreatment on the MDMA-induced deficit in vitro,DAT [1],attenuated
"COC(=O)[C@H]1[C@@H](OC(=O)c2ccccc2)C[C@@H]2CC[C@H]1N2C [cocaine, (−)cocaine hydrochloride]",decrease in VMAT-2 immunoreactivity in the P3 (synaptosomal membrane) fraction,VMAT-2 [2]; cocaine 30 mg/kg i.p. single,33%
same,increase in VMAT-2 immunoreactivity in the S3 (vesicle-enriched) fraction,VMAT-2 [2]; cocaine 30 mg/kg i.p. single,80%
"CCc1cc(Cl)c(OC)c(C(=O)NC[C@@H]2CCCN2CC)c1O [eticlopride, (−)-Eticlopride hydrochloride]",effect of antagonist pretreatment on the MPD-induced increase in VMAT-2 immunoreactivity in the vesicular subcellular fraction,VMAT-2 [2]; antagonist 0.5 mg/kg i.p. 15 min prior to MPD 40 mg/kg s.c.,completely prevented
same,effect of antagonist pretreatment on the METH-induced decrease in vesicular [3H]DA uptake,"VMAT-2 [3]; rat, in vivo",attenuated
same,effect of eticlopride on the MDMA-induced decrease in vesicular DA uptake,"VMAT-2 [3]; rat, in vivo",attenuated
same,vesicular [3H]DA uptake after antagonist per se,"VMAT-2 [3]; rats, antagonist 0.5 mg/kg i.p.",did not affect
same,effect of antagonist pretreatment on the MPD-induced increase in vesicular [3H]DA uptake,"VMAT-2 [3]; rats, antagonist 0.5 mg/kg i.p. 15 min prior to MPD 40 mg/kg s.c., 1 h",attenuated
same,[3H]DHTBZ binding after antagonist per se,VMAT-2 [4]; antagonist 0.5 mg/kg i.p.,did not affect
same,effect of antagonist pretreatment on the MPD-induced increase in [3H]DHTBZ binding,"VMAT-2 [4]; antagonist 0.5 mg/kg i.p. 15 min prior to MPD 40 mg/kg s.c., 1 h",completely prevented
same,effect of antagonist pretreatment on the methamphetamine-induced decrease in vesicular dopamine uptake,VMAT-2 [5],attenuated
COC(=O)[C@H]1[C@H]2C[C@@H]3c4[nH]c5cc(OC)ccc5c4CCN3C[C@H]2C[C@@H](OC(=O)c2cc(OC)c(OC)c(OC)c2)[C@@H]1OC [reserpine],striatal vesicular DA levels,[6],below the detection limit
same,depletion in total striatal tissue DA levels,"[7]; rats, reserpine 10 mg/kg i.p. 6 and 1 h before decapitation",> 98%
"CC(N)(Cc1ccc(O)cc1)C(=O)O.Cl (stereo not drawn) [αMT, α-methyl-p-tyrosine hydrochloride]",striatal DA levels,"[7]; αMT-treated rats, 150 mg/kg i.p.",10.1±2.0 pg/1 μg protein
same,effect of αMT pretreatment on the MDMA-induced deficit in WIN35428 binding,DAT [8],did not prevent
same,effect of αMT pretreatment on the MDMA-induced decrease in DAT activity,[9],did not affect
